Data as given in patent publication US20200397738A1, “METHODS FOR TREATING CANCER AND PROTECTING RENEWABLE TISSUES” (President and Fellows of Harvard College, priority 2018, published 2020).
Each block holds one compound with its values, some of them ahead of it.

What was measured:
[1] = tested on: human breast cancer cells MCF-7; assay: MCF-7 cell proliferation; type: cell-based; details: MCF-7, 10 μM
Procedure: To assess the impact of Compound 1 on cell proliferation, human breast cancer cells MCF-7 were treated with 10 μM of Compound 1.

[2] = molecular target: MDM2/MDMX-mediated p53 ubiquitination (Homo sapiens, UniProt O15151+Q00987); assay: cell-free assay with purified proteins, p53 ubiquitination; type: biochemical
MDM2/MDMX-mediated p53 ubiquitination, sequence (Q00987 whole entry): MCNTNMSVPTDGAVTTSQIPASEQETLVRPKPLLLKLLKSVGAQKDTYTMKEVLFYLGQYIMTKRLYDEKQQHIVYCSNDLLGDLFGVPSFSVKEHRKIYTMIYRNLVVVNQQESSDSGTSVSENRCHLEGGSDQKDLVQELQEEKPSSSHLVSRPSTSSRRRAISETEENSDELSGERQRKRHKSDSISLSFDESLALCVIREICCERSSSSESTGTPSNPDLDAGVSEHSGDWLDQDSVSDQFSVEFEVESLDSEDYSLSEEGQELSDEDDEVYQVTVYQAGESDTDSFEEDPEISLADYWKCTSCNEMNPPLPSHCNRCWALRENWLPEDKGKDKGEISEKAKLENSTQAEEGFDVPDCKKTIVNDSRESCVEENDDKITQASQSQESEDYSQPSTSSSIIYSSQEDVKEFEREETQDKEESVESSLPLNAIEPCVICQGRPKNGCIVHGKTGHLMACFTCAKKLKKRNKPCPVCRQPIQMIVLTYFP
MDM2/MDMX-mediated p53 ubiquitination, sequence (O15151 whole entry): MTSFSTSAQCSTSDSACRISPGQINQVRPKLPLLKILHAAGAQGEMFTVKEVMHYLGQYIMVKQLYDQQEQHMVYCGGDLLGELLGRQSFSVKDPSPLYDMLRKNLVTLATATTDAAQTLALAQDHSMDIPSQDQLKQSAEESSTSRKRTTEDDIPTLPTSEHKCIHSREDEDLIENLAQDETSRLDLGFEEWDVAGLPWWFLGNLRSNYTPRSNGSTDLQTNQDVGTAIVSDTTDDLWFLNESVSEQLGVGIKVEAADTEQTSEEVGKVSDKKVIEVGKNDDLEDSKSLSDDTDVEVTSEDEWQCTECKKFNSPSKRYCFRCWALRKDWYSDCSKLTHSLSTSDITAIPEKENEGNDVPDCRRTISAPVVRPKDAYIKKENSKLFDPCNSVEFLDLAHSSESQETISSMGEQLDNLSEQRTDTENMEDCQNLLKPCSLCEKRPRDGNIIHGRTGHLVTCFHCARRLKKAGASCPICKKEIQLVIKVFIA

[3] = tested on: thymus, spleen and duodenum; assay: TUNEL analysis of IR- and doxorubicin-induced apoptosis in renewable tissues; type: in vivo, wild-type mice
Procedure: To assess the protective effects of Compound 1 on renewable tissues, wild-type mice were injected with Compound 1 at a dose of 4 mg/kg IP for 19 hours before 4 Gy ionizing radiation (IR) or exposure to doxorubicin (20 mg/kg).

[4] = tested on: EZH2; assay: half-life of EZH2 in splenocytes with cycloheximide; type: cell-based, mouse; details: 2 μg/ml 24 hours, then 100 μg/ml cycloheximide
Procedure: (§1) Half-life of EZH2 was measured in splenocytes isolated from wildtype mouse that had been pretreated with 2 μg/ml of Compound 1 for 24 hours followed by 100 μg/ml cycloheximide (CHX). […] To further confirm the effect of Compound 1 on EZH2 and H3K27me3, thymocytes isolated from wildtype mice were treated with 0, 0.5, 1, 3 or 5 μg/ml of Compound 1 for 12 hours. […] Furthermore, to validate the effect of Compound 1 on EZH2 and H3K27me3 in renewable tissues, wildtype mice were treated with 0 or 4 mg/kg of Compound 1 for 19 hours.

[5] = molecular target: T1, MDM2/MDMX complex (Mus musculus, UniProt O35618+P23804); assay: immunoprecipitation with anti-Mdmx antibody and immunoblot in splenocytes; type: cell-based; details: splenocytes from wild-type mice, 2 or 5 μg/ml, 24 hour
T1 construct: endogenous in cells; host or cells: primary splenocytes from wild-type mice
T1 sequence (P23804 whole entry): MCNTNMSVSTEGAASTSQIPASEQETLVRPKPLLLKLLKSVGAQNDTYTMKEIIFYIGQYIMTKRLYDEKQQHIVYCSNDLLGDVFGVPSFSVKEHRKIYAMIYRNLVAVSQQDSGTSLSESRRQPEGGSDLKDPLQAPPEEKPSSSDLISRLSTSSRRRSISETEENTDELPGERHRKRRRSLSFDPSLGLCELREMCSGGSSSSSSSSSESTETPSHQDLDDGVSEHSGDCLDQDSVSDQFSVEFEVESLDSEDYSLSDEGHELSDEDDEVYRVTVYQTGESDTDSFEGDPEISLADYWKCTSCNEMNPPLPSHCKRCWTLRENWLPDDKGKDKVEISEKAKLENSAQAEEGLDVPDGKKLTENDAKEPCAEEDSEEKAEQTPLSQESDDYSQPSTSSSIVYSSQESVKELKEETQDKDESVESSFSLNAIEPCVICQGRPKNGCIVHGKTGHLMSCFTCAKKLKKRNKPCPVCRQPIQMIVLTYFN
T1 sequence (O35618 whole entry): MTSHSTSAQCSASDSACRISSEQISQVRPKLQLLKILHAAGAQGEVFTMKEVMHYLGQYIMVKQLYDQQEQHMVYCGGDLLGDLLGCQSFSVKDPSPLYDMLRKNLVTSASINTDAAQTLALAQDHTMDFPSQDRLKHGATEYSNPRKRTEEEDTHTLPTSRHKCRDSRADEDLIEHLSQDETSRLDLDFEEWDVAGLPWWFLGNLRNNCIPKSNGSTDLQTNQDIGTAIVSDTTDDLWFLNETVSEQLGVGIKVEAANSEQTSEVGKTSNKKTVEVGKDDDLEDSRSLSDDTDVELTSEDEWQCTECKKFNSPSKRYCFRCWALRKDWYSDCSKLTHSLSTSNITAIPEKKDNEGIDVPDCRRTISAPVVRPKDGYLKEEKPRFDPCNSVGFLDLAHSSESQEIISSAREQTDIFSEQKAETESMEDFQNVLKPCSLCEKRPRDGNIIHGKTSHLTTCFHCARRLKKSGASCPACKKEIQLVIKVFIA
Procedure: A small molecule compound, referred to herein as Compound 1 was used to dissociate and reduce the MDM2/MDMX complex, and preserve p53. […] To further verify this finding, splenocytes from wild-type mice were treated with 2 or 5 μg/ml of Compound 1, or vehicle for 24 hour.

[6] = tested on: MCF-7 tumor xenografts; assay: immunohistochemical analysis of MCF-7 tumor xenografts; type: in vivo; details: 10 mg/kg IP daily, relative to vehicle-treated mice
[7] = tested on: EZH2; assay: immunostaining of EZH2 and H3K27me3 in renewable tissues; type: in vivo, mice; details: thymus, spleen and duodenum, 4 mg/kg, 19 hours
Procedure: as §1

[8] = tested on: MCF-7 xenograft tumors; assay: growth of MCF-7 xenograft tumors; type: in vivo; details: 10 mg/kg IP daily, compared to vehicle-treated mice
Text: Expression of GLUT1 and PGK1 serves as markers of aggressive biological behavior and identifies a worse prognosis in breast cancer patients.

[9] = tested on: p53; assay: RT-qPCR of CDKN1A/p21 in MCF-7 cells (marker of p53 activity); type: cell-based, human; details: MCF-7, 0-100 μg/ml
Procedure: (§2) To assess the impact of Compound 1 and preserved p53 on apoptosis, human breast cancer cells MCF-7 were treated with increasing doses (0-100 μg/ml) of Compound 1. […] The expression level of the pro-apoptotic gene p21 was used as surrogate marker to assess the activity of p53. […] C57BL/6 mice were treated with, PBS, Nutlin 3A (200 mg/kg) or Compound 1 (200 mg/kg). The mice were sacrificed 24 hours later, and caspase-3 expression was assessed in thymus, a tissue very sensitive to p53-induced apoptosis.

[10] = tested on: HIF1; assay: RT-qPCR of ALDHA in MCF-7 cells (marker of HIF1 activity); type: cell-based, human; details: MCF-7, 0-100 μg/ml
Text: The expression level of ALDHA was used as surrogate marker to assess the activity of HIF1.

[11] = molecular target: T2, MDM2/MDMX complex (Homo sapiens, UniProt O15151+Q00987); assay: cell-based mammalian two-hybrid assay
T2 construct: expressed in transfected cells
T2 sequence (Q00987 whole entry): as the sequence (Q00987 whole entry) above
T2 sequence (O15151 whole entry): as the sequence (O15151 whole entry) above

[12] = tested on: EZH2; assay: Western blot of EZH2 and H3K27me3 in thymocytes; type: cell-based, mice; details: thymocytes, 0.5, 1, 3 or 5 μg/ml, 12 hours
Procedure: as §1

[13] = tested on: thymocytes; assay: IR-induced killing of thymocytes, cell count; type: cell-based, mice
Procedure: Thymocytes isolated from wildtype mice were treated with 2 μg/ml of Compound 1 for 24 hours, in absence or presence of 2 μM GSK126, followed by 0 Gy or 5 Gy IR. Cell numbers were counted 48 hours after IR to assess the effect of Compound 1 and EZH2 inhibition on IR-induced killing.

[14] = tested on: thymus, spleen and duodenum; assay: TUNEL analysis of IR- and doxorubicin-induced apoptosis in renewable tissues; type: in vivo, wild-type mice; details: doxorubicin 20 mg/kg alone (Compound 1 0 mg/kg)
[15] = tested on: thymus; assay: acute toxicity experiment, caspase-3 in thymus; details: 200 mg/kg, 24 hours
Procedure: as §2

disassociation of the MDM2/MDMX complex [5]: disassociation
disassociation of the MDM2/MDMX complex [11]: dose-dependent disassociation
Compound: COC(=O)C1(Cc2ccc(C)c(C/C=C(/C)Cl)c2)OC(=O)C(O)C1c1ccc(O)cc1 (stereo not drawn) [Compound 1]
cell proliferation [1]: considerable reduction in cell proliferation
MDM2/MDMX-mediated p53 ubiquitination and degradation [2]: blocking MDM2/MDMX-mediated p53 ubiquitination and degradation
TUNEL apoptosis ([3]; Duodenum, 4 Gy IR, Compound 1 4 mg/kg IP 19 hours before): 1 ± 0.3%
TUNEL apoptosis ([3]; Duodenum, Control (no IR or doxorubicin), Compound 1 4 mg/kg IP): 0%
TUNEL apoptosis ([3]; Duodenum, doxorubicin 20 mg/kg, Compound 1 4 mg/kg IP 19 hours before): 3 ± 0.1%
TUNEL apoptosis ([3]; Spleen, 4 Gy IR, Compound 1 4 mg/kg IP 19 hours before): 7 ± 0.2%
TUNEL apoptosis ([3]; Spleen, Control (no IR or doxorubicin), Compound 1 4 mg/kg IP): 0%
TUNEL apoptosis ([3]; Spleen, doxorubicin 20 mg/kg, Compound 1 4 mg/kg IP 19 hours before): 1 ± 0.1%
TUNEL apoptosis ([3]; Thymus, 4 Gy IR, Compound 1 4 mg/kg IP 19 hours before): 22 ± 4%
TUNEL apoptosis ([3]; Thymus, Control (no IR or doxorubicin), Compound 1 4 mg/kg IP): 0%
TUNEL apoptosis ([3]; Thymus, doxorubicin 20 mg/kg, Compound 1 4 mg/kg IP 19 hours before): 1 ± 0.2%
half-life of EZH2 [4]: prolonged half-life
expression of PUMA in tumors [6]: little to no change
expression of p21 in tumors [6]: little to no change
glycolytic marker GLUT1 in tumors [6]: lower level
glycolytic marker PGK1 in tumors [6]: lower level
p53 level in tumors [6]: readily detectable levels of p53
proliferation marker Ki-67 in tumors [6]: lower level
EZH2 immunostaining [7]: induction
H3K27me3 immunostaining [7]: induction
tumor growth [8]: significant growth delay
mRNA level of p21 [9]: little induction
mRNA level of ALDHA [10]: significant decrease
level of EZH2 [12]: significantly induced levels
level of H3K27me3 [12]: significantly induced levels
IR-induced cell death ([13]; 2 μg/ml 24 hours, 5 Gy IR, counted 48 hours after IR): significantly attenuated

Compound: COc1cccc2c1C(=O)c1c(O)c3c(c(O)c1C2=O)C[C@@](O)(C(=O)CO)C[C@@H]3O[C@H]1C[C@H](N)[C@H](O)[C@H](C)O1 [Doxorubicin, doxorubicin]
TUNEL apoptosis ([14]; Duodenum): 15 ± 1.1%
TUNEL apoptosis ([14]; Spleen): 22 ± 0.2%
TUNEL apoptosis ([14]; Thymus): 15 ± 0.1%

Compound: CC[C@H](C)n1cc(C)c2c(C(=O)NCc3c(C)cc(C)[nH]c3=O)cc(-c3ccc(N4CCNCC4)nc3)cc21 [GSK126, reference compound]
protective effect of Compound 1 against IR-induced cell death ([13]; 2 μM GSK126 with 2 μg/ml Compound 1, 5 Gy IR): reversed

Compound: COc1ccc(C2=N[C@@H](c3ccc(Cl)cc3)[C@@H](c3ccc(Cl)cc3)N2C(=O)N2CCNC(=O)C2)c(OC(C)C)c1 [Nutlin 3A]
caspase-3 activation (apoptosis) in thymus [15]: considerable apoptosis
